In patent US12493040B2, “Cancer detection method using sense of smell of nematode” (HIROTSU BIO SCIENCE INC., priority 2013, dated 2025):

System: RNAi-treated eri-1 (mg366) nematodes
Test: RNAi screening of olfactory receptor genes: chemotaxis assay of RNAi-treated nematodes to odorants
Type: in vivo, Caenorhabditis elegans
Settings: low concentration of attractant
In short: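 eri-1 (mg366) worms knocked down by feeding RNAi (Ahringer library) on IPTG/ampicillin NGM plates with E. coli for 4 days, then tested for chemotaxis, 30–50 worms per assay. Odorants at 1 μl of 10^−3 or 10^−4 dilution, or 1 and 5 μl undiluted. Hits scored by z score, thresholds ±1.96 (P<0.05) or ±0.96.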

chemotaxis index (Control nematodes): 0.49 ± 0.020 | chemotaxis index (srh-10 RNAi-treated nematodes): 0.68 | chemotaxis index (srh-11 RNAi-treated nematodes): 0.75 | chemotaxis index (srh-15 RNAi-treated nematodes): 0.44 | chemotaxis index (srh-16 RNAi-treated nematodes): 0.95 | chemotaxis index (srh-18 RNAi-treated nematodes): 0.96 | chemotaxis index (srh-19 RNAi-treated nematodes): 0.64 | chemotaxis index (srh-22 RNAi-treated nematodes): 0.42 | chemotaxis index (srh-23 RNAi-treated nematodes): 0.48 | chemotaxis index (srh-24 RNAi-treated nematodes): 0.59 | chemotaxis index (srh-25 RNAi-treated nematodes): 0.95 | chemotaxis index (srh-27 RNAi-treated nematodes): 0.27 | chemotaxis index (srh-28 RNAi-treated nematodes): 0.22 | chemotaxis index (srh-36 RNAi-treated nematodes): 0.26 | chemotaxis index (srh-37 RNAi-treated nematodes): 0.60 | chemotaxis index (srh-39 RNAi-treated nematodes): −0.24 | chemotaxis index (srh-40 RNAi-treated nematodes): 0.47 | chemotaxis index (srh-41 RNAi-treated nematodes): 0.57 | chemotaxis index (srh-44 RNAi-treated nematodes): 0.52 | chemotaxis index (srh-45 RNAi-treated nematodes): 0.26 | chemotaxis index (srh-46 RNAi-treated nematodes): 0.03 | chemotaxis index (srh-48 RNAi-treated nematodes): 0.38 | chemotaxis index (srh-49 RNAi-treated nematodes): 0.60 | chemotaxis index (srh-50 RNAi-treated nematodes): 0.53 | chemotaxis index (srh-51 RNAi-treated nematodes): 0.63 | chemotaxis index (srh-52 RNAi-treated nematodes): 0.51 | chemotaxis index (srh-55 RNAi-treated nematodes): 0.49 | chemotaxis index (srh-59 RNAi-treated nematodes): −0.14 | chemotaxis index (srh-60 RNAi-treated nematodes): 0.22 | chemotaxis index (srh-61 RNAi-treated nematodes): 0.40 | chemotaxis index (srh-67 RNAi-treated nematodes): 0.41 | chemotaxis index (srh-68 RNAi-treated nematodes): 0.21 | chemotaxis index (srh-69 RNAi-treated nematodes): 0.13 | chemotaxis index (srh-70 RNAi-treated nematodes): 0.25 | chemotaxis index (srh-71 RNAi-treated nematodes): 0.14 | chemotaxis index (srh-72 RNAi-treated nematodes): 0.29 | chemotaxis index (srh-74 RNAi-treated nematodes): 0.42 | chemotaxis index (srh-75 RNAi-treated nematodes): 0.53 | chemotaxis index (srh-77 RNAi-treated nematodes): 0.32 | chemotaxis index (srh-79 RNAi-treated nematodes): 0.53 | chemotaxis index (srh-80 RNAi-treated nematodes): 0.41 | chemotaxis index (srh-82 RNAi-treated nematodes): 0.49 | chemotaxis index (srh-83 RNAi-treated nematodes): 0.72 | chemotaxis index (srh-97 RNAi-treated nematodes): 0.74 | chemotaxis index (srh-99 RNAi-treated nematodes): 0.54 | chemotaxis index (srh-100 RNAi-treated nematodes): 0.35 | chemotaxis index (srh-104 RNAi-treated nematodes): −0.30 | chemotaxis index (srh-105 RNAi-treated nematodes): 0.27 | chemotaxis index (srh-109 RNAi-treated nematodes): 0.65 | chemotaxis index (srh-111 RNAi-treated nematodes): 0.39 | chemotaxis index (srh-113 RNAi-treated nematodes): 0.14 | chemotaxis index (srh-115 RNAi-treated nematodes): 0.39 | chemotaxis index (srh-116 RNAi-treated nematodes): 0.22 | chemotaxis index (srh-118 RNAi-treated nematodes): 0.44 | chemotaxis index (srh-119 RNAi-treated nematodes): 0.18 | chemotaxis index (srh-120 RNAi-treated nematodes): 0.80 | chemotaxis index (srh-122 RNAi-treated nematodes): 0.24 | chemotaxis index (srh-123 RNAi-treated nematodes): 0.30 | chemotaxis index (srh-125 RNAi-treated nematodes): 0.08 | chemotaxis index (srh-128 RNAi-treated nematodes): 0.49 | chemotaxis index (srh-129 RNAi-treated nematodes): 0.15 | chemotaxis index (srh-130 RNAi-treated nematodes): 0.36 | chemotaxis index (srh-214 RNAi-treated nematodes): 0.88 | chemotaxis index (srh-216 RNAi-treated nematodes): 0.65 | chemotaxis index (srh-217 RNAi-treated nematodes): 0.92 | chemotaxis index (srh-220 RNAi-treated nematodes): 0.67 | chemotaxis index (srh-222 RNAi-treated nematodes): 0.46 | chemotaxis index (srh-223 RNAi-treated nematodes): 0.23 | chemotaxis index (srh-227 RNAi-treated nematodes): 0.60 | chemotaxis index (srh-229 RNAi-treated nematodes): 0.12 | chemotaxis index (srh-233 RNAi-treated nematodes): 0.33 | chemotaxis index (srh-235 RNAi-treated nematodes): 0.51 | chemotaxis index (srh-236 RNAi-treated nematodes): 0.37 | chemotaxis index (srh-239 RNAi-treated nematodes): 0.49 | chemotaxis index (srh-241 RNAi-treated nematodes): 0.63 | chemotaxis index (srh-243 RNAi-treated nematodes): 0.00 | chemotaxis index (srh-244 RNAi-treated nematodes): 0.19 | chemotaxis index (srh-247 RNAi-treated nematodes): 0.38 | chemotaxis index (srh-250 RNAi-treated nematodes): 0.58 | chemotaxis index (srh-251 RNAi-treated nematodes): 0.32 | chemotaxis index (srh-252 RNAi-treated nematodes): 0.65 | chemotaxis index (srh-258 RNAi-treated nematodes): 0.35 | chemotaxis index (srh-261 RNAi-treated nematodes): 0.27 | chemotaxis index (srh-264 RNAi-treated nematodes): 0.46 | chemotaxis index (srh-266 RNAi-treated nematodes): 0.00 | chemotaxis index (srh-274 RNAi-treated nematodes): 0.82 | chemotaxis index (srh-275 RNAi-treated nematodes): 0.57 | chemotaxis index (srh-276 RNAi-treated nematodes): 0.45 | chemotaxis index (srh-277 RNAi-treated nematodes): 0.83 | chemotaxis index (srh-279 RNAi-treated nematodes): 0.55 | chemotaxis index (srh-281 RNAi-treated nematodes): 0.64 | chemotaxis index (srh-282 RNAi-treated nematodes): 0.73 | chemotaxis index (srh-283 RNAi-treated nematodes): 0.15 | chemotaxis index (srh-284 RNAi-treated nematodes): 0.36 | chemotaxis index (srh-291 RNAi-treated nematodes): 0.48 | chemotaxis index (srh-292 RNAi-treated nematodes): 0.52 | chemotaxis index (srh-293 RNAi-treated nematodes): 0.00 | chemotaxis index (srh-297 RNAi-treated nematodes): 0.32 | chemotaxis index (srh-298 RNAi-treated nematodes): 0.68 | chemotaxis index (srh-308 RNAi-treated nematodes): 0.39
SMILES: CCC(=O)C(C)=O [pentanedione]
